Experiments:
[1] = tested on: NOX; assay: H2DCF-DA (DCF fluorescence) measurement of ROS in HUVEC stimulated with TGF-β; type: cell-based, human; settings: TGF-β stimulation
Description: The activity of the compounds according to the invention may be tested for their activity in the inhibition or reduction of formation of reactive oxygen species (ROS) from oxygen in cells. The activity of the compounds is tested in the following cell cultures by different techniques such as nitroblue tetrazolium, Amplex Red, Chemiluminescence (Luminol) and 2′,7′-dichlorodihydrofluorescein diacetate (H2DCF-DA) according to the protocols detailed below. […]
HUVEC were plated on coverslips and made quiescent overnight in 0.5% BSA before stimulation with TGF-β. […] DCF fluorescence was visualized at an excitation wavelength of 488 nm and emission at 515 to 540 nm. […] For calculation, the absorbance at […] was normalized to absorbance at […] for each individual well. […] NOX activities were expressed as % of the activity in control cells. […]

[2] = tested on: NOX; assay: Nitroblue tetrazolium (NBT) test of intracellular and extracellular superoxide in cell cultures; type: cell-based, human; settings: DPI final concentration 10 μM, 2.5 h
Description: (§1) The activity of the compounds according to the invention may be tested for their activity in the inhibition or reduction of formation of reactive oxygen species (ROS) from oxygen in cells. The activity of the compounds is tested in the following cell cultures by different techniques such as nitroblue tetrazolium, Amplex Red, Chemiluminescence (Luminol) and 2′,7′-dichlorodihydrofluorescein diacetate (H2DCF-DA) according to the protocols detailed below.
Human microglia cell line (HMC3, human microglia clone 3) (Janabi et al., 1995, Neurosci. Lett. 195:105) were cultured in MEM (Eagle's minimum essential medium) containing 10% FBS with 50 U/ml penicillin G sodium 50 μg/ml streptomycin sulfate, and incubated at 37° C. for 24 hours. IFN-γ (human IFN-γ, Roche. 11 040 596 001) was added to the culture medium for a final concentration of 10 ng/ml 24 h, before detection of O2^− formation. […]
Intracellular and extracellular superoxide was measured by a colorimetric technique using a quantitative nitroblue tetrazolium (NBT) test. SOD-inhibitable conversion of NBT to formazan, a fine blue precipitate, in the presence of superoxide anion was measured using Fluostar Optima spectrometer (BMG labtech). […] The absorption was measured at 630 nm. For calculation, the absorbance at 630 nm was normalized for each individual well. […] NOX activities were expressed as % of the activity in control cells. […]

[3] = tested on: NOX; assay: Chemiluminescence (luminol) measurement of ROS in cell cultures; type: cell-based, human; settings: 60 minutes at 37° C.
Description: as §1
(§2) Extracellular hydrogen peroxide was measured using Amplex UltraRed (Molecular Probes). Cells were trypsinized (1× Trypsin-EDTA), collected by centrifugation, and resuspended in HBSS supplemented with 1% glucose. Cells were seeded into black 96-well plates at a density of 50,000 cells in 200 μl testing buffer (HBSS 1% glucose containing 0.005 U/mL horseradish peroxidase (Roche) and 50 μM Amplex Red in the presence or absence of compounds according to the invention. As a control, DPI was included at a final concentration of 10 μM The plates were placed in the fluorescent Optima Fluorescent plate reader and kept at 37° C. during 20 min. Fluorescence was measured for […] with excitation and emission wavelengths of 544 nm and 590 nm respectively. NOX activities were expressed as % of the activity in control cells. Residual activity of DPI-treated cells was usually <10%.
ROS was measured using the chemiluminescent probe luminol. […]

[4] = target: T1, NOX (Homo sapiens, UniProt P04839); assay: Amplex Red measurement of extracellular hydrogen peroxide (NOX activity) using DMSO-differentiated HL60 cells; type: cell-based; settings: for IC50 / Inhibition (%) of NOX activity: DMSO-differentiated HL60 cells; for Inhibition (%) of NOX activity: test concentration not given
T1 construct: HL60 differentiation to the neutrophil phenotype was triggered by adding Me2SO; endogenous in cells; host or cells: HL-60 cells differentiated with DMSO (1.25% v/v, 6 days) to the neutrophil phenotype
T1 sequence (P04839 1-570): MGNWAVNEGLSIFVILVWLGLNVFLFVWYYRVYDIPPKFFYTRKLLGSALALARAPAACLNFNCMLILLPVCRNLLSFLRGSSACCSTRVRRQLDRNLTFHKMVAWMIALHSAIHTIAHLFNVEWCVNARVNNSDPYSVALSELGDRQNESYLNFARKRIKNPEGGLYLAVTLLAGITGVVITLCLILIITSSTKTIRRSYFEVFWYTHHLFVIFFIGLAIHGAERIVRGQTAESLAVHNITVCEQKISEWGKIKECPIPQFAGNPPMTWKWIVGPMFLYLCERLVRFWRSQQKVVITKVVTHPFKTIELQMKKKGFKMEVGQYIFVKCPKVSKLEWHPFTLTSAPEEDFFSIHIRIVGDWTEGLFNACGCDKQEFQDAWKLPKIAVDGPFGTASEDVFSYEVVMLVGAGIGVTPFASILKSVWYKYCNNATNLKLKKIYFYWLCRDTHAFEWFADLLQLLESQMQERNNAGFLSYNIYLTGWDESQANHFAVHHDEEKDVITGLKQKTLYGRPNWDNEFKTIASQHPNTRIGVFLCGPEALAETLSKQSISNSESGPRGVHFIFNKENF
T1 sequence (P13498 1-195 partner): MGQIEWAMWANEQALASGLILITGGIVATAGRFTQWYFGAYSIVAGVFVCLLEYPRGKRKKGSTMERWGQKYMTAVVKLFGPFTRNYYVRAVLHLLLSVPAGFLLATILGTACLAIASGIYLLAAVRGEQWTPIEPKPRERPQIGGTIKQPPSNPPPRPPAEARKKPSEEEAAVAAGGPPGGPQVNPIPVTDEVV
Description: as §1
Human acute myeloid leukemia cell line HL-60 was cultured in RPMI 1640 (Invitrogen) supplemented with 10% heat-inactivated calf serum, 2 mM glutamine, 100 U/mL penicillin (Sigma), and 100 μg streptomycin (Sigma) at 37° C. under a humidified atmosphere of 5% CO2. HL60 differentiation to the neutrophil phenotype was triggered by adding Me2SO (final concentration 1.25% v/v for 6 days) to the culture medium.
as §2
The Table 2 below summarizes the percentage of inhibition of NOX activity as measured by Amplex Red using DMSO-differentiated HL60 cells as described above:
The Table 3 below summarizes the IC50 of NOX activity as measured by Amplex Red using DMSO-differentiated HL60 cells as described above: […]

Structure (SMILES)	Residual activity of DPI-treated cells (NOX activity as % of the activity in control cells) [1]	Residual activity of DPI-treated cells (NOX activity as % of the activity in control cells) [2]	Residual activity of DPI-treated cells (NOX activity as % of the activity in control cells) [3]	Residual activity of DPI-treated cells (NOX activity as % of the activity in control cells) ([4]; DPI final concentration 10 μM)	IC50 [4]	Inhibition (%) of NOX activity [4]
c1ccc([I+]c2ccccc2)cc1 [DPI, Diphenyl-iodonium]	< 10%	< 10%	< 10%	< 10%		
Cn1c(COc2ccc(F)cc2)c2c(=O)n(CCN3CCOCC3)[nH]c2cc1=O [Compound 86, 4-[(4-fluorophenoxy)methyl]-5-methyl-2-(2-morpholin-4-ylethyl)-1H-pyrazolo[4,3-c] pyridine-3,6(2H,5H)-dione]					< 5 µM	87%
CCOCCCn1c(COCc2ccccc2)c2c(=O)n(CCN3CCOCC3)[nH]c2cc1=O [Compound 89, 4-[(benzyloxy)methyl]-5-(3-ethoxypropyl)-2-(2-morpholin-4-ylethyl)-1H-pyrazolo[4,3-c]pyridine-3,6 (2H,5H)-dione]					< 5 µM	86%
CC(=O)Nc1cccc(Cn2c(C)c3c(=O)n(CCc4ccccc4)[nH]c3cc2=O)c1 [Compound 28, N-(3-{[4-methyl-3,6-dioxo-2-(2-phenylethyl)-1,2,3,6-tetrahydro-5H-pyrazolo[4,3-c]pyridin-5-yl]methyl}phenyl) acetamide]					< 5 µM	78%
Cc1c2c(=O)n(C)[nH]c2cc(=O)n1C [Compound 5, 2,4,5-Trimethyl-1H-Pyrazolo[4,3-c]Pyridine-3,6(2H,5H)-Dione]					< 5 µM	48%
COc1cccc(Cc2c3c(=O)n(Cc4ccccc4)[nH]c3cc(=O)n2Cc2ccccn2)c1 [Compound 21, 2-benzyl-4-(3-methoxybenzyl)-5-(pyridin-2-ylmethyl)-1H-pyrazolo[4,3-c] pyridine-3,6(2H,5H)-dione]					< 5 µM	74%
COCCn1[nH]c2cc(=O)n(Cc3ccccc3CN3CCOCC3)c(C)c2c1=O [Compound 18, 2-(2-methoxyethyl)-4-methyl-5-[2-(morpholin-4ylmethyl)benzyl]-1H-pyrazolo[4,3-c]pyridine-3,6(2H,5H)-dione]					< 5 µM	75%
